Experimental data as given in US6486156B1, “Chemical compounds” (Astrazeneca AB, priority 1998, dated 2002).

Target: T1, Farnesyl protein transferase (FPT) (Homo sapiens, UniProt P49354+P49356)
T1 construct: partially purified from human placenta by ammonium sulphate fractionation; from tissue; host or cells: human placenta
Experiment: In-vitro assay (test (i)): inhibition of farnesylation of Ki-ras with radiolabelled farnesyl pyrophosphate
Type: biochemical
Details: FPT partially purified from human placenta; substrate Kras (CVIM C-terminal sequence)
Procedure: The following stock solutions were used and the assays were conducted in 96 well plates: TRIS Buffer (500 mM TRIS, 5 mM MgCl2.6H2O, pH=8.0); Farnesyl pyrophosphate (6.4 mg/ml); Aprotinin (1.9 mg/ml); Ki-ras (0.5 mg/ml, stored at −80° C.); Acid ethanol (850 ml absolute ethanol+150 ml concentrated HCl).
Farnesyl protein transferase (FPT) was partially purified from human placenta by ammonium sulphate fractionation followed by a single Q-Sepharose™ (Pharmacia, Inc) anion exchange chromatography essentially as described by Ray and Lopez-Belmonte (Ray K P and Lopez-Belmonte J (1992) Biochemical Society Transactions 20 494-497). The substrate for FPT was Kras (CVIM C-terminal sequence). The cDNA for oncogenic val 12 variant of human c-Ki-ras-2 4B was obtained from the plasmid pSW11-1 (ATCC). This was then subcloned into the polylinker of a suitable expression vector e.g. pIC147. The Kras was obtained after expression in the E. coli strain, BL21. […]
Assays were performed in 96 well plates as follows: 10 μl of test compound solution was added to each well. […] Precipitated protein was then collected onto glass fibre filter mats (B) using a Tomtec™ cell harvester and tritiated label was measured in a Wallac™ 1204 Betaplate scintillation counter. […]

- IC50: ~0.4 nM
Compound: CSCC[C@H](NC(=O)c1ccc(/C=C/Cn2ccnc2)cc1-c1ccc(Cl)cc1Cl)C(=O)O [Example 29, (2S)-2-{4-[(E)-3-(Imidazol-1-yl)prop-1-en-1-yl]-2-(2,4-dichlorophenyl)benzamido}-4-methylsulfanylbutyric Acid]
